For 24 molecules, IC50 results are on record in ChEMBL document CHEMBL1287675, “Substituted spiro [2.3'] oxindolespiro [3.2″]-5,6-dimethoxy-indane-1″-one-pyrrolidine analogue as inhibitors of acetylcholinesterase” (Bioorg Med Chem Lett, 2010).

The structures appear in SMILES notation.

In this assay the target is Acetylcholinesterase (Homo sapiens, UniProt P22303). In words: Inhibition of human acetyl cholinesterase by Ellmann's method.
Chain of Acetylcholinesterase (P22303 whole entry): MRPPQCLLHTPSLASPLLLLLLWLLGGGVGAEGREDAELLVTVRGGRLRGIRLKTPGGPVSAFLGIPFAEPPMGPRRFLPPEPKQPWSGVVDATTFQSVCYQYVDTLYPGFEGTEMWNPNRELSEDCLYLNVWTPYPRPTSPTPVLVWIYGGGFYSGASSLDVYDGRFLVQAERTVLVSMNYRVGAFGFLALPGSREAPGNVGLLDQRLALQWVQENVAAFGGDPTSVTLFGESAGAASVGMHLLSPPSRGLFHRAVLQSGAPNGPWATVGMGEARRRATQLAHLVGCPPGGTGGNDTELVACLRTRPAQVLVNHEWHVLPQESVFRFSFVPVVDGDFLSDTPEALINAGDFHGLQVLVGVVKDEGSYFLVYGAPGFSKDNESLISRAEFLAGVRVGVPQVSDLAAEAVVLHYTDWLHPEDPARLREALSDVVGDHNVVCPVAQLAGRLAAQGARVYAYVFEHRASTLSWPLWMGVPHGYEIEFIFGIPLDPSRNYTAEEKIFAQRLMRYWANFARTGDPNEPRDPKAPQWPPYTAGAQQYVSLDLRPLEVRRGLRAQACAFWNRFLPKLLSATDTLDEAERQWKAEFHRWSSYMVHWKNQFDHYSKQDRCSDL
`COc1cc2c(cc1OC)C(=O)C1(C2)C(c2ccccc2)CN(C)C12C(=O)Nc1ccc([N+](=O)[O-])cc12` (centres undefined) came in with a concentration for half-maximal inhibition (IC50) of 13.2 µM.
In turn, `COc1cc2c(cc1OC)C(=O)C1(C2)C(c2ccccc2)C(c2ccccc2)NC12C(=O)Nc1ccc(Cl)cc12` (centres undefined) registered an IC50 of 7.26 µM.
Consider `COc1cc2c(cc1OC)C(=O)C1(C2)C(c2ccccc2Cl)CN(C)C12C(=O)Nc1ccccc12` (centres undefined), for which the IC50 amounted to 4.3 µM.
As for `COc1ccc(C2CN(C)C3(C(=O)Nc4ccc(Cl)cc43)C23Cc2cc(OC)c(OC)cc2C3=O)cc1OC` (centres undefined), the midpoint of inhibition, the IC50, lay at 4.2 µM.
In turn, `COc1ccc(C2CN(C)C3(C(=O)Nc4ccc([N+](=O)[O-])cc43)C23Cc2cc(OC)c(OC)cc2C3=O)cc1OC` (centres undefined) registered a half-inhibitory concentration (IC50) of 6.1 µM.
The molecule `COc1cc2c(cc1OC)C(=O)C1(C2)C(c2ccccc2)C(c2ccccc2)NC12C(=O)Nc1ccc([N+](=O)[O-])cc12` (centres undefined) had an IC50 of 3.7 µM.
In the case of `COc1cc2c(cc1OC)C(=O)C1(C2)C(c2ccc(F)cc2)CN(C)C12C(=O)Nc1ccccc12` (centres undefined), the midpoint of inhibition, the IC50, lay at 2.12 µM.
With `COc1ccc(C2CN(C)C3(C(=O)Nc4ccccc43)C23Cc2cc(OC)c(OC)cc2C3=O)cc1OC` (centres undefined), half-maximal inhibition (IC50) was put at 4.2 µM.
As for `COc1cc2c(cc1OC)C(=O)C1(C2)C(c2ccccc2Cl)CN(C)C12C(=O)Nc1ccc(Cl)cc12` (centres undefined), inhibition was half-maximal at 6.6 µM (IC50).
For `COc1cc2c(cc1OC)C(=O)C1(C2)C(c2ccc(F)cc2)C(c2ccccc2)NC12C(=O)Nc1ccc([N+](=O)[O-])cc12` (centres undefined), the IC50 was 14.3 µM.
`COc1cc2c(cc1OC)C(=O)C1(C2)C(c2ccccc2Cl)C(c2ccccc2)NC12C(=O)Nc1ccccc12` (centres undefined) returned a concentration for half-maximal inhibition (IC50) of 7.3 µM.
Take `COc1cc2c(cc1OC)C(=O)C1(C2)C(c2ccc(F)cc2)CN(C)C12C(=O)Nc1ccc(Cl)cc12` (centres undefined): the IC50 stood at 3.7 µM.
The result for `COc1cc2c(cc1OC)C(=O)C1(C2)C(c2ccc(F)cc2)C(c2ccccc2)NC12C(=O)Nc1ccccc12` (centres undefined) reads 6.86 µM.
For `COc1cc2c(cc1OC)C(=O)C1(C2)C(c2ccccc2Cl)C(c2ccccc2)NC12C(=O)Nc1ccc(Cl)cc12` (centres undefined), the IC50 was determined as 12.2 µM.
`COc1ccc(C2C(c3ccccc3)NC3(C(=O)Nc4ccc([N+](=O)[O-])cc43)C23Cc2cc(OC)c(OC)cc2C3=O)cc1OC` (centres undefined): the IC50 turned out to be 15.4 µM.
As for `COc1ccc(C2C(c3ccccc3)NC3(C(=O)Nc4ccccc43)C23Cc2cc(OC)c(OC)cc2C3=O)cc1OC` (centres undefined), the figure is 5.2 µM; as for `COc1cc2c(cc1OC)C(=O)C1(C2)C(c2ccccc2)C(c2ccccc2)NC12C(=O)Nc1ccccc12` (centres undefined), 5.12 µM.
As for `COc1cc2c(cc1OC)C(=O)C1(C2)C(c2ccccc2Cl)C(c2ccccc2)NC12C(=O)Nc1ccc([N+](=O)[O-])cc12` (centres undefined), the figure is 4.2 µM; as for `COc1cc2c(cc1OC)C(=O)C1(C2)C(c2ccc(F)cc2)CN(C)C12C(=O)Nc1ccc([N+](=O)[O-])cc12` (centres undefined), 8.6 µM; as for `COc1cc2c(cc1OC)C(=O)C1(C2)C(c2ccc(F)cc2)C(c2ccccc2)NC12C(=O)Nc1ccc(Cl)cc12` (centres undefined), 9.86 µM.
`COc1ccc(C2C(c3ccccc3)NC3(C(=O)Nc4ccc(Cl)cc43)C23Cc2cc(OC)c(OC)cc2C3=O)cc1OC` (centres undefined) gave a concentration for half-maximal inhibition (IC50) of 8.26 µM.
With `COc1cc2c(cc1OC)C(=O)C1(C2)C(c2ccccc2)CN(C)C12C(=O)Nc1ccccc12` (centres undefined), half-maximal inhibition (IC50) required 3.12 µM.
With `COc1cc2c(cc1OC)C(=O)C1(C2)C(c2ccccc2Cl)CN(C)C12C(=O)Nc1ccc([N+](=O)[O-])cc12` (centres undefined), half-maximal inhibition (IC50) was put at 7.6 µM.
On to `COc1cc2c(cc1OC)C(=O)C1(C2)C(c2ccccc2)CN(C)C12C(=O)Nc1ccc(Cl)cc12` (centres undefined), for which the concentration for half-maximal inhibition (IC50) came out at 11.2 µM.

Usually IC50 stands for the point on the concentration scale where inhibition reaches its midpoint. A low value points to higher potency.
